Experimental data as given in ChEMBL document CHEMBL4819085, “Dipyridyl-substituted thiosemicarbazone as a potent broad-spectrum inhibitor of metallo-β-lactamases” (Bioorg Med Chem, 2021).
≈ marks a conversion by molar mass, not a printed value. Calls of active or inactive are those of the source. The rule behind the calls is not given here.

How the values were obtained:
[1] = test system: Escherichia coli; assay: Antibacterial activity against Escherichia coli 24 assessed as reduction in bacterial growth incubated for 24 hrs by broth microdilution method; assay type: functional
[2] = test system: Escherichia coli; assay: Inhibition of Escherichia coli NDM-1 assessed as synergistic antibacterial activity at 4 ug/ml in presence of meropenem; conditions: dose 4.0 µg/ml
[3] = test system: Klebsiella pneumoniae; assay: Potentiation of meropenem-induced antibacterial activity against Klebsiella pneumoniae assessed as meropenem MIC incubated for 24 hrs by broth microdilution method; assay type: functional
[4] = test system: Klebsiella pneumoniae; assay: Antibacterial activity against Klebsiella pneumoniae assessed as fractional inhibitory concentration index incubated for 24 hrs in presence of meropenem by checkerboard assay; assay type: functional
[5] = test system: Escherichia coli; assay: Synergistic antibacterial activity against Escherichia coli at 16 ug/ml in presence of meropenem; assay type: functional, organism-based; conditions: dose 16.0 µg/ml
[6] = test system: Escherichia coli; assay: Inhibition of Escherichia coli IMP-1 assessed as potentiation of meropenem-induced antibacterial activity by measuring fold reduction in meropenem MIC up to 8 ug/ml incubated for 24 hrs by broth microdilution method relative to meropenem alone; conditions: dose microg/ml <=8, time 24.0 hrs
[7] = test system: Enterococcus faecium; assay: Antibacterial activity against vancomycin-resistant Enterococcus faecium assessed as reduction in bacterial growth incubated for 24 hrs by broth microdilution method; assay type: functional
[8] = test system: Escherichia coli; assay: Inhibition of Escherichia coli ImiS assessed as potentiation of meropenem-induced antibacterial activity by measuring fold reduction in meropenem MIC up to 8 ug/ml incubated for 24 hrs by broth microdilution method relative to meropenem alone; conditions: dose microg/ml <=8, time 24.0 hrs
[9] = test system: Bacteria; assay: Inhibition of bacterial NDM-1 expressed in Escherichia coli BL21 (DE3) at 20 uM using meropenem as substrate incubated for 1 hr by spectrometry analysis relative to control
[10] = test system: Escherichia coli; assay: Potentiation of meropenem-induced antibacterial activity against Escherichia coli 06 assessed as meropenem MIC incubated for 24 hrs by broth microdilution method; assay type: functional
[11] = test system: Escherichia coli; assay: Potentiation of meropenem-induced antibacterial activity against Escherichia coli 08 assessed as meropenem MIC incubated for 24 hrs by broth microdilution method; assay type: functional
[12] = test system: Escherichia coli; assay: Bactericidal activity against Escherichia coli producing NDM-1 assessed as reduction in bacterial viability at 4 ug/ml in presence of meropenem incubated for 12 hrs by time kill assay; assay type: functional, organism-based; conditions: dose 4.0 µg/ml
[13] = (§1) Inhibition of bacterial IMP-1 using meropenem as substrate incubated for 1 hr by spectrometry analysis; set-up: species or system Bacteria
[14] = test system: Bacteria; assay: as §1
[15] = test system: Escherichia coli; assay: Potentiation of meropenem-induced antibacterial activity against Escherichia coli 01 assessed as meropenem MIC incubated for 24 hrs by broth microdilution method; assay type: functional
[16] = biological target: Metallo-beta-lactamase (Escherichia coli) (UniProt Q5U7L7); assay: Inhibition of Escherichia coli VIM-2 assessed as potentiation of meropenem-induced antibacterial activity by measuring fold reduction in meropenem MIC up to 8 ug/ml incubated for 24 hrs by broth microdilution method relative to meropenem alone; conditions: dose microg/ml <=8, time 24.0 hrs
[17] = (§2) Inhibition of bacterial VIM-2 expressed in Escherichia coli BL21 (DE3) using meropenem as substrate incubated for 1 hr by spectrometry analysis; set-up: species or system Bacteria
[18] = test system: Bacteria; assay: as §2
[19] = Binding affinity to Zn2+ ion assessed as UV absorption peak at 435 nm at 50 uM incubated for 5 mins in presence of ZnCl2 by spectrometry analysis
[20] = test system: Escherichia coli; assay: Potentiation of meropenem-induced antibacterial activity against Escherichia coli 04 assessed as meropenem MIC incubated for 24 hrs by broth microdilution method; assay type: functional
[21] = test system: Escherichia coli; assay: Antibacterial activity against Escherichia coli producing VIM-2 assessed as fractional inhibitory concentration index incubated for 24 hrs in presence of meropenem by checkerboard assay; assay type: functional
[22] = test system: Escherichia coli; assay: Antibacterial activity against Escherichia coli 06 assessed as reduction in bacterial growth incubated for 24 hrs by broth microdilution method; assay type: functional
[23] = Competitive inhibition of bacterial NDM-1 expressed in Escherichia coli BL21 (DE3) using meropenem as substrate incubated for 1 hr by Lineweaver-Burk plot analysis; set-up: species or system Bacteria
[24] = test system: Escherichia coli; assay: Antibacterial activity against Escherichia coli producing L1 assessed as fractional inhibitory concentration index incubated for 24 hrs in presence of meropenem by checkerboard assay; assay type: functional, organism-based
[25] = test system: Escherichia coli; assay: Inhibition of Escherichia coli NDM-1 assessed as bacterial growth rate in presence of ZnCl2 relative to control; set-up: scale not given: the % may be the effect or the level left
[26] = test system: Escherichia coli; assay: Inhibition of Escherichia coli L1 assessed as potentiation of meropenem-induced antibacterial activity by measuring meropenem MIC incubated for 24 hrs by broth microdilution method
[27] = test system: Bacteria; assay: Inhibition of bacterial L1 at 20 uM using meropenem as substrate incubated for 1 hr by spectrometry analysis relative to control
[28] = test system: Klebsiella pneumoniae; assay: Antibacterial activity against Klebsiella pneumoniae assessed as reduction in bacterial growth incubated for 24 hrs by broth microdilution method; assay type: functional
[29] = test system: Bacteria; assay: Reversible inhibition of bacterial NDM-1 assessed as residual activity at 50 uM incubated for 6 hrs by dialysis method relative to control
[30] = (§3) Inhibition of bacterial L1 using meropenem as substrate incubated for 1 hr by spectrometry analysis; set-up: species or system Bacteria
[31] = test system: Bacteria; assay: as §3
[32] = test system: Klebsiella pneumoniae; assay: In vivo antibacterial activity against Klebsiella pneumoniae producing NDM-1 infected in mouse assessed as reduction in bacterial load in liver at 2 mg/kg, ip in presence of meropenem; assay type: functional, organism-based
[33] = test system: Escherichia coli; assay: Inhibition of Escherichia coli ImiS assessed as potentiation of meropenem-induced antibacterial activity by measuring meropenem MIC incubated for 24 hrs by broth microdilution method
[34] = Binding affinity to Zn2+ ion assessed as UV absorption peak at 325 nm at 50 uM incubated for 5 mins in presence of ZnCl2 by spectrometry analysis
[35] = biological target: Metallo-beta-lactamase (Escherichia coli) (UniProt Q5U7L7); assay: Inhibition of Escherichia coli VIM-2 assessed as potentiation of meropenem-induced antibacterial activity by measuring meropenem MIC incubated for 24 hrs by broth microdilution method
[36] = test system: Bacteria; assay: Inhibition of bacterial ImiS expressed in Escherichia coli BL21 (DE3) at 20 uM using meropenem as substrate incubated for 1 hr by spectrometry analysis relative to control
[37] = test system: Escherichia coli; assay: Antibacterial activity against Escherichia coli 04 assessed as reduction in bacterial growth incubated for 24 hrs by broth microdilution method; assay type: functional
[38] = test system: Escherichia coli; assay: Potentiation of meropenem-induced antibacterial activity against Escherichia coli 24 assessed as meropenem MIC incubated for 24 hrs by broth microdilution method; assay type: functional
[39] = test system: Escherichia coli; assay: Inhibition of Escherichia coli L1 assessed as potentiation of meropenem-induced antibacterial activity by measuring fold reduction in meropenem MIC up to 8 ug/ml incubated for 24 hrs by broth microdilution method relative to meropenem alone; conditions: dose microg/ml <=8, time 24.0 hrs
[40] = test system: Escherichia coli; assay: Inhibition of Escherichia coli NDM-1 assessed as potentiation of meropenem-induced antibacterial activity by measuring fold reduction in meropenem MIC up to 8 ug/ml incubated for 24 hrs by broth microdilution method relative to meropenem alone; conditions: dose microg/ml <=8, time 24.0 hrs
[41] = test system: Bacteria; assay: Inhibition of bacterial IMP-1 at 20 uM using meropenem as substrate incubated for 1 hr by spectrometry analysis relative to control
[42] = test system: Escherichia coli; assay: Potentiation of meropenem-induced antibacterial activity against Escherichia coli 01 assessed as fold reduction in meropenem MIC incubated for 24 hrs by broth microdilution method relative to meropenem alone; assay type: functional
[43] = test system: Bacteria; assay: Reversible inhibition of bacterial NDM-1 assessed as enzyme activity at 50 uM incubated for 6 hrs by ICP-MS analysis

## CN(C(=S)NN=C(c1ccccn1)c1ccccn1)C1CCCCC1
[1]
  MIC: 16 µg/mL (≈ 45.3 µM)
[2]
  inhibition: Active
[3]
  MIC: 32 µg/mL
[4]
  FIC: 0.313
[5]
  Activity: Active
[6]
  fold change (FC): 8
[7]
  MIC: 16 µg/mL (≈ 45.3 µM)
[8]
  fold change (FC): 64
[9]
  inhibition: > 90%
[10]
  MIC: 64 µg/mL
[11]
  MIC: 32 µg/mL
[12]
  inhibition: Active
[13]
  IC50: 280 nM
[14]
  inhibition: Dose-Dependent Effect
[15]
  MIC: 32 µg/mL
[16]
  fold change (FC): 32
[17]
  IC50: 110 nM
[18]
  inhibition: Dose-Dependent Effect
[19]
  Activity: Active
[20]
  MIC: 16 µg/mL
[21]
  FIC: 0.313
[22]
  MIC: 16 µg/mL (≈ 45.3 µM)
[23]
  Ki: 10.2 nM
[24]
  Activity: inactive
[25]
  Activity: 90%
[26]
  MIC: 32 µg/mL
[27]
  inhibition: > 90%
[28]
  MIC: 32 µg/mL (≈ 90.5 µM)
[29]
  Activity: 70%
[30]
  IC50: 1080 nM
[31]
  inhibition: Dose-Dependent Effect
[32]
  inhibition: Active
[33]
  MIC: 4 µg/mL
[34]
  Activity: Active
[35]
  MIC: 8 µg/mL
[36]
  inhibition: > 90%
[37]
  MIC: 16 µg/mL (≈ 45.3 µM)
[38]
  MIC: 16 µg/mL
[39]
  fold change (FC): 4
[40]
  fold change (FC): 256
[41]
  inhibition: > 90%
[42]
  fold change (FC): 2
[43]
  inhibition: Active
